The source of these data is a melting point compilation (Tetko et al.; mined from patent text by program, amines drawn as free bases though some values may be those of a salt).

Residues, ends and D or L forms follow the SMILES beside them. *: point of attachment. Cbz = O=C(OCc1ccccc1)*

The melting point is the temperature of the solid-liquid transition. With `CC(C)C(C)(C#N)N1C(=O)c2cccc(Cl)c2C1=O` (configuration not stated), the melting point was in the range of 71 to 72 °C.

For the compound `COc1ccncc1-c1cccc(OC2SCC(O)C(O)C2O)c1` (configuration not stated), the melting point came out at 195 °C.

Compound `Cc1oc(C2CCCCC2)nc1CC(=O)O` gave a melting point of 102 to 103 °C.

Consider `NNC(=O)c1cccc(OCc2csc(-c3ccccc3F)n2)c1`, for which the melting point is 143 to 145 °C.

The compound `Cc1cc(OCCN(C)C)c(C(C)C)cc1OC(=O)CCCC(=O)O` gave a melting point of 109 to 110 °C.

On to `CCCC(CCC)C(=O)OC1N=C(c2ccccc2F)c2cc(Cl)ccc2NC1=O` (configuration not stated), for which the melting point was in the range of 147 to 149 °C.

`CCOC(=O)c1[nH]nc(C)c1[N+](=O)[O-]`: the melting point fell in the range of 81 to 86 °C.

For the compound `CC(=O)NCc1ccc(CN2CCN(c3ccccn3)CC2)cc1`, the melting point was 100 to 101 °C.

For `CCCOc1ccc(N(C)C)cc1-c1ncc(-c2nnn[nH]2)c(=O)[nH]1`, the melting point was in the range of 258 to 259 °C.

As to `CCOC(=O)c1csc(/C=C/c2cccc(NC(=O)Cc3ccccc3C(=O)O)c2)n1`, the melting point fell in the range of 221 to 223 °C.

As for `O=C(Cc1ccccc1)Nc1ccc2ccc(Cl)nc2n1`, the melting point was 187 °C.

`Cc1ccc(C(=C/C=C/C(=O)NCCCCc2cccnc2)c2ccc(C)cc2)cc1` came in with a melting point of 144 to 146 °C.

Take `NS(=O)(=O)c1ncccc1SCCCF`: the melting point lay within 85 to 86 °C.

In turn, `Fc1ccc(-c2nc(CI)co2)cc1` had a melting point of 100 to 102 °C.

`COc1ccc2c(c1)CC(NCC(=O)O)CC2` (configuration not stated) registered a melting point of 203 °C.

With `CCn1nc(C(C)C)c2c1C(=O)NCC(c1ccc(O)cc1)=N2`, the melting point was 230 °C.

Take `CC(C)c1nn(-c2ccc(C(F)(F)F)cn2)cc1CCCCOc1ccc(CCC(=O)O)cc1`: the melting point is 144 to 145 °C.

The compound `C#CCn1c(C)c(C)c2cnnc(OCc3ccccc3)c21` came in with a melting point of 116 to 117 °C.

`COc1ccc(C(CC(=O)O)N2Cc3ccccc3C2=O)cc1OC` (configuration not stated) gave a melting point of 146 to 148 °C.

With `COc1ccc(C=CS(=O)(=O)N2C(=O)CCC2OC(C)C)cc1` (configuration not stated), the melting point lay within 101 to 103 °C.

Take `O=C(C1CCCN1C(=O)CCCN1C(=O)c2ccccc2C1=O)N1CCCC1` (configuration not stated): the melting point was in the range of 148 to 149 °C.

With `COc1cc(COc2nn(-c3ccccc3)cc2C=O)ccc1OCc1nc(-c2cccc(O)c2)oc1C`, the melting point is 193 to 194 °C.

The compound `COc1cccc(Nc2cnc3c(NCc4ccccc4)nc(NCCO)nc3c2)c1` showed a melting point of 110 to 111 °C.

The compound `CCCc1nc2c(N)nc3cccnc3c2n1CC1(O)CCOCC1` gave a melting point of 209 to 210 °C.

With `CC1SC(=O)NN=C1c1ccc2c(c1)C(=Cc1cccs1)C(=O)N2` (configuration not stated), the melting point turned out to be 287 °C.

`CCOC(=O)Cc1cc(C)c(C(=O)c2ccc(Cl)cc2)n1C`: the melting point was 101 to 104 °C.

In the case of `COc1ccc(C(C)=O)c(OCCCC(=O)O)c1`, the melting point was 127 to 129 °C.

The compound `CC1(C)CCC(C)(C)c2cc(C(O)CCC(=O)O)ccc21` (configuration not stated) yielded a melting point of 10 °C.

The compound `CSc1nc(-c2cc(C(C)(C)C)c(O)c(C(C)(C)C)c2)cs1` had a melting point of 92 to 93 °C.

On to `Cc1nc(N)nc(CCCCCCCCCCO)c1O`, for which the melting point was in the range of 103 to 104 °C.

On to `CN(C)S(=O)(=O)CCc1ccc2[nH]cc(CC#N)c2c1`, for which the melting point is 105 to 107 °C.

As for `O=c1ccc(-c2cccc(F)c2)n[nH]1`, the melting point was in the range of 207 to 209 °C.

In the case of `O=C1Oc2ccccc2CN1C1CCN(Cc2ccccc2)CC1`, the melting point was in the range of 106 to 107 °C.

`CC(C)(C)OC(=O)N1CCCC(C(=O)N2CCC(c3[nH]nc4c3C(=O)c3c(NC(=O)NN5CCOCC5)cccc3-4)CC2)C1` (configuration not stated): the melting point was 196 to 198 °C.

As to `CC(C)NS(=O)(=O)c1sccc1-c1cccc2cc(-c3ncc(CCl)s3)[nH]c12`, the melting point lay in the range of 184 to 185 °C.

The compound `Nc1nc2c(c(=O)[nH]1)C(CCc1ccc(C(=O)O)cc1)CN2` (configuration not stated) gave a melting point above 290 °C.

Regarding `Cc1cccc(Nc2cc(Nc3cccc(OCCCN(C)C)c3)ncn2)c1`, the melting point is 142 to 144 °C.

`OC1CCCC(c2ccccc2)O1` (configuration not stated) returned a melting point of 64.5 to 71 °C.

On to `CCOP(=O)(Cc1ccc(NC(=O)c2cc3c(s2)-c2c(SC)sc(C(=O)Nc4ccc(CP(=O)(OCC)OCC)cc4)c2CC3)cc1)OCC`, for which the melting point fell in the range of 262 to 263 °C.

Regarding `CCCCc1nc(C(F)(F)F)c(C(=O)OCC)n1Cc1cccc2c1ccn2-c1ccccc1-c1nn[nH]n1`, the melting point is 93 to 95 °C.

`O=C(O)c1ccc(O)c(I)c1` yielded a melting point of 163 °C.

As to `CCNC(=O)[C@H](C)C[C@H](O)[C@H](CC1CCCCC1)NC(=O)[C@H](Cc1cscn1)NC(=O)[C@@H](CC(=O)N(C)Cc1ccccc1)Cc1ccccc1`, the melting point was 148 to 150 °C.

`CC1(C)CCC(C)(C)c2cc(-c3cc(C=CC(=O)O)ccc3O)c(OCc3ccc(F)cc3)cc21` returned a melting point of 123 to 125 °C.

Consider `CCON=C(CC)C1=C(O)CC(c2ccc(NC(=O)OC)cc2)CC1=O` (configuration not stated), for which the melting point was 160 to 161 °C.

`CCCCCCCCCCCCNC(=O)c1cc(Br)c(OCCNC(N)=O)c(-c2cccc(C(F)(F)F)c2)c1`: the melting point lay in the range of 122 to 125 °C.

Turning to `Nc1nc(N)c2c(n1)CCC(Cc1ccccc1Cl)C2` (configuration not stated), the melting point was determined as 134 °C.

For `CCCCc1ccc(CNc2cc(C(=O)Nc3ccccc3)ccc2OC)cc1`, the melting point is 171 to 173 °C.

`CC(=O)Nc1ccc(C(=O)c2c(N)sc3c2CCN(Cc2ccccc2)C3)cc1` had a melting point of 119 to 120 °C.

As to `O=C1Nc2ccccc2Sc2cscc21`, the melting point lay in the range of 215 to 216 °C.

`O=C1CCC(=O)N1Cc1nc2sc3c(c2c(-c2ccc(OCc4ccccc4)cc2)c1Cl)CCNC3`: the melting point is 247 to 248 °C.

On to `O=Cc1ccc(N(Cc2ccccc2)Cc2ccccc2)cc1[N+](=O)[O-]`, for which the melting point lay in the range of 67 to 70 °C.

The compound `CC(O)c1nn(Cc2ccccc2)c(=O)o1` (configuration not stated) registered a melting point of 70 °C.

In turn, `COC(=O)C(CC(C)C)NC(=O)C(CC(N)=O)NC(=O)OCc1ccccc1` (stereo not drawn) (Cbz-Asn-Leu-OMe; configuration not given here) showed a melting point of 191 to 193 °C.

In turn, `CNC(=O)c1ccc(-c2cccc(C3=NC(C)(C)Cc4cc(OC)c5c(c43)CC(C)(C)O5)c2)cc1` yielded a melting point of 242 to 244 °C.

In the case of `OCc1ncn(CCCc2ccc(OCc3coc(/C=C/c4ccccc4)n3)cc2)c1CO`, the melting point was 146 to 148 °C.

Regarding `COC(=O)N[C@@H](C(=O)O)c1ccccc1`, the melting point lay in the range of 122 to 125 °C.

In the case of `OC(COc1cccnc1)c1cccc(OCc2ccc3ccccc3n2)c1` (configuration not stated), the melting point is 103 to 104 °C.

In turn, `N#CC(c1ccccc1)c1cn[nH]c1` (racemic) displayed a melting point of 124 to 127 °C.

Compound `Cc1cc(Cl)ccc1OCC(=O)N1Cc2ccc(C(=O)C(Cl)(Cl)Cl)n2Cc2ccccc21` displayed a melting point of 156 to 158 °C.

Consider `CCOc1ccc(-c2ccc(Cl)cc2)cc1C=O`, for which the melting point fell in the range of 88 to 90 °C.

With `CCN(C=C1C(=O)N(c2cccc(Cl)c2)c2ccccc21)CC`, the melting point fell in the range of 74 to 75.5 °C.

Compound `COc1ccc(N2CCN(c3ccc(NC(=O)NN)cc3)CC2)cc1` showed a melting point of 300 °C.

For the compound `NCC1Cc2cc(F)cc(-c3ccc(Cl)cc3Cl)c2O1` (configuration not stated), the melting point fell in the range of 107 to 109 °C.

With `CCCCCCNC(=O)OCCCNC(=O)OC1CCN(C(=O)Oc2ccc(Oc3ccccc3)cc2)CC1`, the melting point fell in the range of 90 to 92 °C.

`C[C@H]1CC(=O)N1c1ccc(C(=O)OCc2ccccc2)cc1` showed a melting point of 89 °C.

Compound `COC(=O)c1c(C)nc2c(c1N)c1cc(Cl)ccc1n2C` showed a melting point of 203 to 211 °C.

Compound `CCNC(=NS(=O)(=O)c1cccc(C#N)c1)N1CC(CC)C=N1` (configuration not stated) gave a melting point of 164 to 168 °C.

In turn, `CC(C)(CCCc1cccnc1)NC(=O)C=CC=C(c1cccc(F)c1)c1cccc(F)c1` had a melting point of 135 to 136 °C.

Compound `CCCCCN(CCC12CC3CC(CC(C3)C1)C2)C(=O)NC/C=C/c1ccncc1` came in with a melting point of 90 to 118 °C.

As for `CCC1=C(C(=O)OC)C(c2cccc([N+](=O)[O-])c2)c2c(nc(N3CCOCC3)nc2N2CCOCC2)N1` (configuration not stated), the melting point came out at 225 °C.

Take `CNc1ccc(C(=O)c2ccccc2)cc1[N+](=O)[O-]`: the melting point lay in the range of 198 to 201 °C.

In turn, `CC(C)CC(=O)c1ccc(Cl)cc1` returned a melting point of 39 to 40 °C.

In turn, `N#Cc1cc(-c2ccoc2)c2ccc(OCc3cccc(-c4ccc(F)cc4)n3)cc2c1` registered a melting point of 168 to 170 °C.

Consider `O=C(Cc1ccccc1)N[C@@H]1C(=O)N2C(C(=O)O)=C(OS(=O)(=O)C(F)(F)F)NC[C@H]12` (racemic), for which the melting point fell in the range of 100 to 102 °C.

Compound `O=S1CCON=C1c1ccc(Cl)s1` (configuration not stated) gave a melting point of 102 °C.

On to `O=S(=O)(Cl)c1ccc2scnc2c1`, for which the melting point was in the range of 110 to 112 °C.

`CCOc1cc2c(c3c1OC(C)(C)C3)C(c1cccc(C(=O)NC)c1)=NC(C)(C)C2=O` displayed a melting point of 233 to 235 °C.

On to `CC1C(=O)CN[C@H]2c3ccc(Cl)cc3CC[C@H]12` (some centres not stated), for which the melting point was in the range of 71.5 to 73 °C.

With `COc1ccc(S(=O)(=O)Nc2cccnc2Nc2ccc(C)cc2)cc1`, the melting point fell in the range of 188 to 189 °C.

In turn, `O=C(NC1CCC(CCN2CCC(c3cccc4c3CCO4)CC2)CC1)c1ccc(N2CCS(=O)(=O)CC2)cc1` (configuration not stated) came in with a melting point of 282 °C.

The compound `CC1(C)CCC(C)(C)c2cc(-c3cn(-c4ccc(C(=O)O)cc4)c(S)n3)ccc21` registered a melting point of 170 to 172 °C.

In the case of `CCOC(=O)c1c(CCCn2cncn2)nc2sc3c(c2c1-c1ccc(OC)c(OC)c1)CCN(C(=O)c1ccc(Cl)cc1)C3`, the melting point fell in the range of 114 to 116 °C.

Turning to `COc1cc(Nc2c(C#N)cnc3cc(/C=C/c4ccncc4)ccc23)c(Cl)cc1Cl`, the melting point lay within 218 to 219 °C.

`CCN(CC)CCNC(=O)c1cc(Cl)c(N)cc1OCCCN` returned a melting point of 119 to 121 °C.

With `O=C1C(c2cc3c(cc2O)OCCO3)c2c(F)cccc2N1C(c1ccccc1)c1ccccc1` (configuration not stated), the melting point was in the range of 115 to 118 °C.

As for `c1ccc(CCNc2nc3ccccc3c3[nH]c(C4CCCC4)nc23)cc1`, the melting point is 95 to 97 °C.

As for `CCOC(=O)C(CC(F)(F)CC(C)C1CCC2C3CC=C4CC(OC5CCCCO5)CCC4(C)C3CCC12C)C(=O)OCC` (configuration not stated), the melting point was in the range of 79 to 80 °C.
